Measurements taken from article PMC12652730, “The Chemoreceptive Molecular Mechanism Underlying CSP-Mediated Recognition of Seed Elaiosome from Stemona tuberosa by Hornets” (Genes, 2025).
Where two headings read alike, the source gives them in different places.

Key:
[1] = target: VvelCSP1 (Vespa velutina auraria, UniProt A0A384ZVP9); experiment: Fluorescence competitive binding assay (1-NPN probe) with VvelCSP1; settings: for Ki: VvelCSP1
Method: (§1) Fluorescence competitive binding assays were employed to characterize the interactions between VvelCSPs and 13 volatiles shared between the elaiosomes of S. tuberosa and the cuticular hydrocarbons of honeybees. These tests were performed in 1 cm path length quartz cuvettes with an excitation wavelength of 337 nm and emission wavelength scanning from 400–450 nm. The volatiles and the fluorescent probe 1-NPN (1-N-phenylnaphthylamine), listed in Supplementary Table S2, were dissolved in methanol to prepare 100 mM stock solutions, which were then diluted to 1 mM working solutions [25]. To remove any potential endogenous ligands, the purified proteins were delipidated by three washes with an equal volume of dichloromethane (1:1 v/v). Each wash involved a 10-min incubation, and the process was followed by evaporation of the residual solvent under a gentle stream of nitrogen. Purified CSPs were resuspended in 20 mM Tris-HCl buffer (pH 7.5) to a final concentration of 2 μM. Binding parameters for CSP-NPN were determined by titration: 2 mL of CSP solution (2 μM) was titrated with 1-NPN (final concentrations: 2−24 μM). Maximum fluorescence intensity was recorded, and the dissociation constant was calculated. […] After incubation in the dark for 2 min, fluorescence quenching was measured. Half-maximal inhibitory concentration (IC50) values for volatiles were calculated from the competition curves, and their binding constants (Ki) were subsequently derived. The presented data, including IC50 and Ki values, originate from a single experiment under uniform conditions to ensure comparability (Supplementary Table S3).

[2] = target: VvelCSP4; experiment: Fluorescence competitive binding assay (1-NPN probe) with VvelCSP4; design: species or system Vespa velutina auraria
Method: as §1

[3] = VvelCSP4 2 μM, 1-NPN 1 μM, Tris-HCl pH 7.5, single experiment, read-out: IC50 (ligand concentration displacing 50% of the fluorescence intensity of the CSPs/NPN complex)
[4] = VvelCSP4, derived from IC50, read-out: Ki (dissociation constant)
[5] = VvelCSP4, read-out: IC50 (μM), no binding symbol
[6] = VvelCSP4, read-out: Ki (μM), no binding symbol

Chain of VvelCSP1 (A0A384ZVP9 entry or part of it): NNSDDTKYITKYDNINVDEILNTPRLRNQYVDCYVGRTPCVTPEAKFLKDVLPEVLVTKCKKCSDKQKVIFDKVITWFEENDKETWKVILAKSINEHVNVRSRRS

| Compound | Raw fluorescence intensity ([1]; VvelCSP1, chemical 0.5 μM) | Raw fluorescence intensity ([1]; VvelCSP1, chemical 1 μM) | Raw fluorescence intensity ([1]; VvelCSP1, chemical 2 μM) | Raw fluorescence intensity ([1]; VvelCSP1, chemical 4 μM) | Raw fluorescence intensity ([1]; VvelCSP1, chemical 6 μM) | Raw fluorescence intensity ([1]; VvelCSP1, chemical 8 μM) | Raw fluorescence intensity ([1]; VvelCSP1, chemical 12 μM) | Raw fluorescence intensity ([1]; VvelCSP1, chemical 16 μM) | IC50 [2, 3] [µM] | Raw fluorescence intensity ([2]; VvelCSP4, chemical 0.5 μM) | Raw fluorescence intensity ([2]; VvelCSP4, chemical 1 μM) | Raw fluorescence intensity ([2]; VvelCSP4, chemical 2 μM) | Raw fluorescence intensity ([2]; VvelCSP4, chemical 4 μM) | Raw fluorescence intensity ([2]; VvelCSP4, chemical 6 μM) | Raw fluorescence intensity ([2]; VvelCSP4, chemical 8 μM) | Raw fluorescence intensity ([2]; VvelCSP4, chemical 12 μM) | Raw fluorescence intensity ([2]; VvelCSP4, chemical 16 μM) | Ki [2, 4] [µM] | IC50 [2, 5] [µM] | Ki [2, 6] [µM] | also measured |
| --- | --- | --- | --- | --- | --- | --- | --- | --- | --- | --- | --- | --- | --- | --- | --- | --- | --- | --- | --- | --- | --- |
| CCCCCCCCCCCCCCCCCCCCCCCCCCCCC [Nonacosane] | 215.85 | 197.03 | 181.17 | 168.33 | 152.52 | 138.03 | 127.11 | 120.08 | 20.4 | 212.97 | 196.97 | 179.08 | 164.16 | 151.46 | 136.04 | 129.53 | 125.16 | 15.1 |  |  |  |
| CCCCCCCCCCCCCCCCCCCCCCCCC [Pentacosane] | 242.52 | 219.99 | 165.83 | 143.30 | 135.17 | 129.88 | 124.70 | 122.60 | 4.65 | 211.45 | 182.28 | 160.44 | 139.39 | 119.91 | 111.74 | 105.45 | 103.82 | 3.49 |  |  |  |
| CCCCCCCCCCCCCCCCCCCCCCCCCC [Hexacosane] | 189.29 | 171.76 | 135.79 | 114.55 | 103.35 | 99.94 | 93.92 | 89.96 |  | 213.35 | 194.71 | 177.42 | 169.19 | 147.61 | 141.30 | 136.25 | 133.13 |  | > 24 | > 18 |  |
| CCCCCCCC/C=C\CCCCCCCCCCCCC [Z-9-Tricosene] | 214.80 | 200.54 | 176.56 | 164.98 | 151.46 | 137.73 | 126.20 | 120.19 | 3.97 | 182.16 | 152.13 | 132.92 | 109.71 | 96.72 | 89.44 | 84.83 | 83.78 | 2.97 |  |  |  |
| CCCCCCCCCCCCCCCCCCC [Nanadecane] | 223.11 | 209.38 | 178.27 | 171.35 | 158.50 | 148.00 | 140.37 | 133.91 | 10.4 | 238.31 | 207.32 | 185.38 | 167.28 | 153.91 | 144.81 | 135.70 | 129.34 | 7.89 |  |  | IC50 ([1]; VvelCSP1 2 μM, 1-NPN 1 μM, Tris-HCl pH 7.5, single experiment, read-out: IC50 (ligand concentration displacing 50% of the fluorescence intensity of the CSPs/NPN complex)): 18.2 µM; Ki ([1]; derived from IC50, read-out: Ki (dissociation constant)): 14.5 µM; Ki ([1]; read-out: Binding affinity class (by Ki)): > 10 µM; Ki ([2]; VvelCSP4, read-out: Binding affinity class (by Ki)): 5 to 10 µM |
| CCCCCCCCCCCCCCCCCCCCCCCC [Tetracosane] | 225.09 | 200.88 | 176.79 | 157.66 | 144.05 | 131.64 | 122.98 | 117.42 | 18.9 | 216.50 | 198.86 | 178.28 | 160.59 | 153.54 | 132.96 | 126.27 | 122.27 | 14.2 |  |  |  |
| CCCCCCCCCCCCCCCCCCCCCCCCCCCC [Octacosane] | 200.77 | 192.40 | 162.06 | 146.64 | 135.22 | 131.33 | 127.20 | 124.62 |  | 227.35 | 213.99 | 194.19 | 182.58 | 174.55 | 162.14 | 156.02 | 154.11 |  | > 24 | > 18 |  |
| CCCCCCCCCCCCCCCCCCCCCCCCCCCCCC [Triacontane] | 211.63 | 196.09 | 180.51 | 166.41 | 152.93 | 143.85 | 139.39 | 137.14 |  | 216.07 | 200.62 | 183.85 | 171.56 | 162.42 | 148.29 | 139.28 | 135.24 |  | > 24 | > 18 |  |
